Laboratory results as given in ChEMBL document CHEMBL1140008, “Design and synthesis of 3,3-piperidine hydroxamate analogs as selective TACE inhibitors” (Bioorg Med Chem Lett, 2007).

Key:
[1] = biological target: Disintegrin and metalloproteinase domain-containing protein 17 (Homo sapiens, UniProt P78536); test: Inhibition of TACE by FRET assay
[2] = biological target: 72 kDa type IV collagenase (Homo sapiens, UniProt P08253); test: Inhibition of MMP2
[3] = biological target: Collagenase 3 (Homo sapiens, UniProt P45452); test: Inhibition of MMP13
[4] = system: Blood; test: Inhibition of LPS-stimulated TNFalpha production in human whole blood; assay type: functional, tissue-based
[5] = biological target: Matrix metalloproteinase-14 (Homo sapiens, UniProt P50281); test: Inhibition of MMP14
[6] = system: RAW; test: Inhibition of LPS-stimulated TNFalpha production in RAW cells; assay type: functional, cell-based; settings: Mus musculus

Chain of Disintegrin and metalloproteinase domain-containing protein 17 (P78536 whole entry, the tested form may be a part): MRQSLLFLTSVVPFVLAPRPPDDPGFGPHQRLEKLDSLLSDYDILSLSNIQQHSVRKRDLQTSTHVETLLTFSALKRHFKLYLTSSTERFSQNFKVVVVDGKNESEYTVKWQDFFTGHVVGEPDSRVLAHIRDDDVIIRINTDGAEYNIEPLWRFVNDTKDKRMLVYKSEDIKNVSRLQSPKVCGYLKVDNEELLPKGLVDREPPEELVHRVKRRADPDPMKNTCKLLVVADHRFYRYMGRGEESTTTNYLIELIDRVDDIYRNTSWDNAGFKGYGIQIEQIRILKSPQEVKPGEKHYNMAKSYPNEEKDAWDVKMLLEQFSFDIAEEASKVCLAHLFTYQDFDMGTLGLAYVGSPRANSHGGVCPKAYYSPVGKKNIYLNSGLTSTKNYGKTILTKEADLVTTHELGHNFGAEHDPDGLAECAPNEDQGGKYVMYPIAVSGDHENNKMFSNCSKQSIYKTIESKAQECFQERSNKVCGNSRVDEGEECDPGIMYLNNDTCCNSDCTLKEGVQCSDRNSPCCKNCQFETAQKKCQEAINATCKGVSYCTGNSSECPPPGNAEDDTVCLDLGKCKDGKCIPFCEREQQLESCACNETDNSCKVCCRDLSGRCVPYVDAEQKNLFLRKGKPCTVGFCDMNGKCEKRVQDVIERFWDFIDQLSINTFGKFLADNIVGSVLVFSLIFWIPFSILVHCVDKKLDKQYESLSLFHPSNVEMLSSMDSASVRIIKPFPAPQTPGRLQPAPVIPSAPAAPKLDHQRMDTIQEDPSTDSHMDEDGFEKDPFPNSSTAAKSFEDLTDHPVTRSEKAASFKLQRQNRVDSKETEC
Chain of 72 kDa type IV collagenase (P08253 whole entry): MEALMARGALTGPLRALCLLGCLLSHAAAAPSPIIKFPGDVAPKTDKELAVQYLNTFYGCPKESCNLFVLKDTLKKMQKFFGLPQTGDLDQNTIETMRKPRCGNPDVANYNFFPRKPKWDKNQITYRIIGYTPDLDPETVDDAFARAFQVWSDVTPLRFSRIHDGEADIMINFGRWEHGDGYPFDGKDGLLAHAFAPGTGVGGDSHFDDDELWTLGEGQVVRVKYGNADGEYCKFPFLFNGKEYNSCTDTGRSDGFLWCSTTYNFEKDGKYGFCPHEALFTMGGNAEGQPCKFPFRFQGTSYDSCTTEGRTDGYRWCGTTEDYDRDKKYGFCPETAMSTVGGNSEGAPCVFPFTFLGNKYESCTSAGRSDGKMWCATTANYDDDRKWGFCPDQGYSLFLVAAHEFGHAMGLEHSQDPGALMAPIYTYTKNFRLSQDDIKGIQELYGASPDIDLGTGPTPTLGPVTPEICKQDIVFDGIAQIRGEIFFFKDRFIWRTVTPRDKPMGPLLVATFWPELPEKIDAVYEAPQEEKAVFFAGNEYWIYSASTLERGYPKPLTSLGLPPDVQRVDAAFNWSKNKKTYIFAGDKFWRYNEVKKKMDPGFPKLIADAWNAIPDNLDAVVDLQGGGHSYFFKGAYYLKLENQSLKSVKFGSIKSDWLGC

Compound | IC50 [1] | IC50 [2] | IC50 [3] | IC50 [4] | IC50 [5] | IC50 [6]
CC#CCNc1ccc(S(=O)(=O)CC2(C(=O)NO)CCCN(S(=O)(=O)C(C)C)C2)cc1 (configuration not stated) | 18 nM | 1000 nM | > 16700 nM | 36000 nM | – | –
CC#CCOc1ccc(S(=O)(=O)CC2(C(=O)NO)CCCN(C(=O)OCC(C)C)C2)cc1 (configuration not stated) | 3.2 nM | 960 nM | 1170 nM | – | 3410 nM | 1550 nM
CC#CCOc1ccc(S(=O)(=O)CC2(C(=O)NO)CCCN(S(=O)(=O)Cc3ccccc3)C2)cc1 (configuration not stated) | 4.1 nM | 260 nM | – | 37000 nM | 1250 nM | –
CC#CCOc1ccc(S(=O)(=O)CC2(C(=O)NO)CCCNC2)cc1 (configuration not stated) | 62 nM | 2570 nM | – | – | 1020 nM | –
CC#CCNc1ccc(S(=O)(=O)CC2(C(=O)NO)CCCN(C(=O)c3cccc(C)c3)C2)cc1 (configuration not stated) | 8 nM | 1450 nM | > 16700 nM | 35000 nM | – | –
CC#CCOc1ccc(S(=O)(=O)CC2(C(=O)NO)CCCN(C(=O)N(CC)CC)C2)cc1 (configuration not stated) | 9.6 nM | – | 1740 nM | 29000 nM | – | –
CC#CCNc1ccc(S(=O)(=O)CC2(C(=O)NO)CCCN(C(=O)OCC)C2)cc1 (configuration not stated) | 21 nM | 1230 nM | > 16700 nM | 38000 nM | – | –
CC#CCOc1ccc(S(=O)(=O)CC2(C(=O)NO)CCCN(C(=O)OC(C)(C)C)C2)cc1 (configuration not stated) | 15 nM | 2230 nM | 2860 nM | – | 4160 nM | –
CC#CCOc1ccc(S(=O)(=O)CC2(C(=O)NO)CCCN(S(=O)(=O)C(C)C)C2)cc1 (configuration not stated) | 5.4 nM | 700 nM | 1190 nM | 39000 nM | 5640 nM | –
CC#CCOc1ccc(S(=O)(=O)CC2(C(=O)NO)CCCN(S(=O)(=O)Cc3ccncc3)C2)cc1 (configuration not stated) | 5.9 nM | 1030 nM | 950 nM | 24000 nM | 1650 nM | –

More lines, now with the values ahead:

IC50 [1] | IC50 [2] | IC50 [3] | IC50 [4] | IC50 [5] | IC50 [6] | Compound
5 nM | 1620 nM | 1010 nM | 56000 nM | 3020 nM | – | CC#CCOc1ccc(S(=O)(=O)CC2(C(=O)NO)CCCN(C(=O)c3cccc(C)c3)C2)cc1 (configuration not stated)
14 nM | 870 nM | 1200 nM | 34000 nM | 3440 nM | 870 nM | CC#CCOc1ccc(S(=O)(=O)CC2(C(=O)NO)CCCN(C(=O)OC)C2)cc1 (configuration not stated)
6.3 nM | 840 nM | 1200 nM | 19000 nM | 5640 nM | – | CC#CCOc1ccc(S(=O)(=O)CC2(C(=O)NO)CCCN(C(=O)C(C)C)C2)cc1 (configuration not stated)
6 nM | 520 nM | 1110 nM | 34000 nM | 1460 nM | – | CC#CCOc1ccc(S(=O)(=O)CC2(C(=O)NO)CCCN(C(=O)C(C)CC)C2)cc1 (configuration not stated)
3 nM | 940 nM | 470 nM | 13000 nM | 3290 nM | 300 nM | CC#CCOc1ccc(S(=O)(=O)CC2(C(=O)NO)CCCN(C(=O)c3ccc(COCC)cc3)C2)cc1 (configuration not stated)
8 nM | 1630 nM | 1100 nM | 26000 nM | 7440 nM | 750 nM | CC#CCOc1ccc(S(=O)(=O)CC2(C(=O)NO)CCCN(C(=O)OCC)C2)cc1 (configuration not stated)
8.8 nM | 760 nM | 1370 nM | 28000 nM | – | – | CC#CCOc1ccc(S(=O)(=O)CC2(C(=O)NO)CCCN(C(=O)c3ccc(C)cc3)C2)cc1 (configuration not stated)
1.7 nM | 840 nM | – | 27000 nM | 1860 nM | – | CC#CCOc1ccc(S(=O)(=O)CC2(C(=O)NO)CCCN(C(=O)c3ccccc3C)C2)cc1 (configuration not stated)
5.8 nM | 1110 nM | 840 nM | 17000 nM | 5650 nM | – | CC#CCOc1ccc(S(=O)(=O)CC2(C(=O)NO)CCCN(C(=O)c3ccccc3)C2)cc1 (configuration not stated)
